The conditions of series [1]: prior art; cited from earlier work.
For series [2] the following is noted: not told; cited from earlier work.
The conditions of series [3]: 6-carboxylfluorescein, rats; pretreatment of the skin with 4% calcium thioglycolate; cited from earlier work.
For series [4] the following is noted: across human skin; cited from earlier work.
A short description of series [5]: Skin irritation / tolerability. As to conditions: thioglycolate esters and amides.
A short description of series [6]: In-vitro demonstration of the reaction: conversion of cystine into cysteine, followed by TLC. The note with it: after 6 hours; room temperature, water pH 7.2, under nitrogen. How it is done: A test was made to check whether the presence of a thioglycolate ester will cause conversion of Cystine into Cysteine: [drawing 1]
In a three necked flask (100 ml), under nitrogen were added 10 ml of water (pH 7.2), 200 mg cystine and 200 mg, of iso-octyl thioglycolate and stirred at room temperature for 24 hours. The reaction was followed by TLC using Silica-Gel precoated plates. As an eluant a mixture of BuOH:H2 O:AcOH in a 10:1:5 ratio respectively was used. The plates were developed by spraying a solution of 5% Ninhydrine in ethanol and heating. […] A control experiment was made under the same conditions but without the Thioglycolate ester. After 20 hours at room temperature no cysteine could be detected.

The source of these data is patent US5683713A, “Pharmaceutical compositions for topical application” (priority 1993, dated 1997).

Read-outs that look alike come from different tables or passages of the source.

Turning to `OCCS` [2-Mercaptoethanol], in series [1], the irritation entry is “very strong irritants”.
For the compound `C[S+](C)[O-]` [Dimethyl sulfoxide], the “concentration needed for significant permeation enhancement” value in series [2] is recorded as above 70%.
With `CC(C)=O` [acetone], the irritation entry in series [1] is “cause irritation and edema”.
On to `O=C(O)CS` [calcium thioglycolate], for which, in series [3], the “increase of penetration as compared to the control” value was 9 times.
`CCCCCCCCCC[S+](C)[O-]` (stereo not shown) [decyl methyl, sulfoxide]: the “penetration of sodium methotrexate” value in series [4] is listed as “enhances the penetration of sodium methotrexate across human skin”. Further, the toxicological problems result in series [1] was “creates toxicological problems”.
As to `CCOC(=O)CS` [ethyl thioglycolate], the irritation entry in series [5] was “irritants”.
On to `CC(C)CCCCCOC(=O)CS` [iso-octyl thioglycolate, Iso-octyl thioglycolate], for which the “conversion of cystine to cysteine (TLC spot)” value in series [6] is “a spot corresponding to cysteine was formed and this spot grew as a function of time”.
Regarding `COC(=O)CS` [methyl thioglycolate], in series [5], the irritation result is recorded as “irritants”.
Consider tetralinhydrofurfuryl alcohol, for which, in series [1], the irritation entry was “cause irritation and edema”.
